The subject of series [1] is Respiratory Syncytial Virus (RSV) long strain. In words: RSV antiviral assay (CPE reduction, CCK-8 readout). The following applies: human respiratory syncytial virus. It is filed as cell-based. The method, then: CPE reduction assays are performed as described by Sidwell and Huffman et al., Appl. Microbiol. […] Compounds are added into 384-well cell plates by Labcyte POD 810 Plate Assembler system. Each of the test compounds is provided to duplicate wells of a 384-well cell plate at final concentrations starting from 100 μM or 1 μM using 1/3 stepwise dilutions for 9 points. Quick-thaw Respiratory Syncytial Virus (RSV) long strain (ATCC#VR-26) stock in a 37° C. water bath. Place on ice until ready to use. Viruses are diluted to the concentration of 100 TCID50/30 μL with medium and 30 μl diluted RSV are added into related wells of 384-well cell plates. For each plate, sixteen wells are set aside as uninfected, untreated cell controls (CC), and nine wells per test plate receive virus only as a control for virus replication (VC). The final DMSO concentration of all wells is 1%. Place the plates at 37° C., 5% CO2 for 5 days.
After 5 days incubation, observe the CPE of cells in all wells. […] Six μl of cell counting kit-8 reagent (CCK-8, Dojindo Molecular Technologies Inc., CK04-20) are added to each well, which allows colorimetric assays to determine the number of viable cells through the dehydrogenase activity detection. After 3-4 hour incubation, the absorbance of each well is measured with a spectrophotometric plate reader at 450 nm wavelength, using a 630 nm filter as background according to manufacturer's instruction.

For a further series, the target named is recombinant RSV complex (Human respiratory syncytial virus A, UniProt P28887). In words: RSV polymerase inhibition assay. The following applies: 10 nM recombinant RSV complex, 2 h at 30° C.; Table E = <1 μM, Table F = <50 μM; read-out: IC50. It is filed as biochemical. In outline: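 10 nM recombinant RSV polymerase complex in Tris-HCl pH7.5, 6 mM MgCl2 with RNA oligonucleotides and radionucleotides, incubated 2 h at 30° C with rising inhibitor concentrations. Stopped with EDTA; radiolabelled RNA product counted by scintillation; IC50 from sigmoidal non-linear regression.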
Chain of recombinant RSV complex (P28887 whole entry): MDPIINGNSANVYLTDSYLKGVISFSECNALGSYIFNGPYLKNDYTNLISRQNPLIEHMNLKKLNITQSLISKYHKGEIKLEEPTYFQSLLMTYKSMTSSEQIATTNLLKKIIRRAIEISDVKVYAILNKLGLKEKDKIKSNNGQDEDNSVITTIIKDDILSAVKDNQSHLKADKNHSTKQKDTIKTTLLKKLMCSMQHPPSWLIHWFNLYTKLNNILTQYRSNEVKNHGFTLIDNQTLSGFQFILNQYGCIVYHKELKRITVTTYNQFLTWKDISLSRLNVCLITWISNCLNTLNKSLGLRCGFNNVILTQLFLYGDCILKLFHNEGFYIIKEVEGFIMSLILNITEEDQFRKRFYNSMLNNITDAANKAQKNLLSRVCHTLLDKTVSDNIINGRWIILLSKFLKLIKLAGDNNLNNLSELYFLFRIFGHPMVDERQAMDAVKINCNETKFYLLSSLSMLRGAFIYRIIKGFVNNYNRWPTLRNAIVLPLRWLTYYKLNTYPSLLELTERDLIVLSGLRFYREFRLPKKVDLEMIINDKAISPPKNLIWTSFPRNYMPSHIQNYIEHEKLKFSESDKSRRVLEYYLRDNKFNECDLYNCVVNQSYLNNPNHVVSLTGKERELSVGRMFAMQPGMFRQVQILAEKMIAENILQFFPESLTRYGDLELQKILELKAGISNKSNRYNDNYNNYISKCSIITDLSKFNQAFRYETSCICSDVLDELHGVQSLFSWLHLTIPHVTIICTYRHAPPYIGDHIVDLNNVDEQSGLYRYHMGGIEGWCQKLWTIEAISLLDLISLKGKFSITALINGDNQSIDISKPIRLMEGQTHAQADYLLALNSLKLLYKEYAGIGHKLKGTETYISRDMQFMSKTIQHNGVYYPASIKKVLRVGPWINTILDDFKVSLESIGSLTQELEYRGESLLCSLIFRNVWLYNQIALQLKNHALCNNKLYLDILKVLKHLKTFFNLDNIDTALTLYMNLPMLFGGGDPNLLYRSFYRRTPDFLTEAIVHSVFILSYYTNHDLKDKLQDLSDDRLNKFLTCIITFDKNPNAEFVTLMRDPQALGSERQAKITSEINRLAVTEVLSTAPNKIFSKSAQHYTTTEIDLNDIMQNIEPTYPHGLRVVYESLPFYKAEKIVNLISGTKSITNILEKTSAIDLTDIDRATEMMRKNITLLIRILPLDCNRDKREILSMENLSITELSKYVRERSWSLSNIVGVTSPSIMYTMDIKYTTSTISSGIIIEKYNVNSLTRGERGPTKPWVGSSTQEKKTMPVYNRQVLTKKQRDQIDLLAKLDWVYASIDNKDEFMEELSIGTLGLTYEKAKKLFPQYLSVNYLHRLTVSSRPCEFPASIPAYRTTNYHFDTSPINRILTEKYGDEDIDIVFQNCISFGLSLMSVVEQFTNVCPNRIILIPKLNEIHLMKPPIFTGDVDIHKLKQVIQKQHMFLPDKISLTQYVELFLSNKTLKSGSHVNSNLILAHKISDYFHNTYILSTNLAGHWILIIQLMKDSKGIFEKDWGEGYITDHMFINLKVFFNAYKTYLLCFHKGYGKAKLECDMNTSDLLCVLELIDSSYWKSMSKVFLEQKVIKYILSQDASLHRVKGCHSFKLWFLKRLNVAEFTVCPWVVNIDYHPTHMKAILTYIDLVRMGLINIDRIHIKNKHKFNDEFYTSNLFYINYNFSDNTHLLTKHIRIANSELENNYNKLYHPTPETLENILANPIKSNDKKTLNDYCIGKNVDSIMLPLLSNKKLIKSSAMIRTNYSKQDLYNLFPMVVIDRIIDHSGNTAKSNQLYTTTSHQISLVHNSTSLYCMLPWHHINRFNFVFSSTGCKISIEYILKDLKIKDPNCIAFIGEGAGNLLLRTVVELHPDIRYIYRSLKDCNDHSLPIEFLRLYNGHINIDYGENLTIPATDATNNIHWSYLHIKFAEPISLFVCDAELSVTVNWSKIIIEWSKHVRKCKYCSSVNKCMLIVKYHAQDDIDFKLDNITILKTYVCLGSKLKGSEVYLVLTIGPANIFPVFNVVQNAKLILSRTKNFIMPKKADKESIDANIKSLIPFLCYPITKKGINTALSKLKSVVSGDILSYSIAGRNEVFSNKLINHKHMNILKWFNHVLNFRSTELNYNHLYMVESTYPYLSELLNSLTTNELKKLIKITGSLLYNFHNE
Chain of recombinant RSV complex (P03421 whole entry, further chain): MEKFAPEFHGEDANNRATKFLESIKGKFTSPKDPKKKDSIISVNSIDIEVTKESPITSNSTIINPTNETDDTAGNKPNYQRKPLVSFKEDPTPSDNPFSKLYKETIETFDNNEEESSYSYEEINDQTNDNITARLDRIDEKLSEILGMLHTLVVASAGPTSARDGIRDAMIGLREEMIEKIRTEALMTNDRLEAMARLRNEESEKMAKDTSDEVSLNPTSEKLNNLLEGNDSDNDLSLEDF

The subject of series [2] is RSV subgenomic replicon 395 HeLa and APC126. As to the kind of experiment: RSV subgenomic replicon assay (Renilla luciferase). To be noted: human respiratory syncytial virus; RSV replicon cells (395 HeLa 7 days or APC126 3 days); Table G = less than 1 μM, Table H = equal to or higher than 1 μM and less than 50 μM. The format is cell-based. In outline:
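Replicon cells (RSV with SH, G, F replaced by blasticidin resistance; 395 HeLa or BHK-derived APC126) exposed to 9-point 1:3 compound dilutions in 1% DMSO for 7 days (395 HeLa) or 3 days (APC126) at 37 °C. Renilla luciferase luminescence read; EC50 is concentration cutting signal 50% versus untreated cells.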

Series [3] in a line: Cytotoxicity determination (CCK-8, without addition of virus). It is filed as cell-based. The following applies: human, HEp-2 cells (uninfected), no virus, Table C = greater than 100 μM, Table D = equal to or less than 100 μM and greater than 10 μM. In short, it runs like this: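 HEp-2 cells, no virus, exposed to compound from 100 μM in ½ serial dilutions (7 points, duplicate, 1% DMSO) for 5 days at 37° C, 5% CO2. Viability by CCK-8 (3-4 h) optical density; CC50 calculated.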

[4] abbreviates: 120 h, HEp-2 cells, RSV long strain, 5 days, Table A = less than 1 μM, Table B = equal to or higher than 1 μM and less than 50 μM, read-out: EC50.

Where two headings read alike, the source gives them in different places.

The term EC50 denotes the concentration at which the effect is half-maximal. What is called IC50 is the concentration needed to halve the response being measured. On to `COc1cc(C(=O)NCC(O)(c2cc3c(c(-c4ccc(F)cc4)n2)OCC3(N)CO)C(F)(F)F)cc2cccnc12` (single isomer, unassigned) [Compound 2], for which the concentration for a half-maximal effect (EC50) in series [1] (setting [4]) and in series [2] was less than 1 µM throughout. Moreover, the IC50 on recombinant RSV complex was less than 1 µM.

As usually defined, the CC50 is the concentration at which the toxic effect on the cells reaches its halfway point. Turning to `COc1cc(C(=O)NCC(O)(c2cc3c(c(-c4ccc(F)cc4)n2)OCC3(N)CO)C(F)(F)F)cc2cccnc12` (centres unmarked) [Compound 1], the EC50 in series [1] (HEp-2, 120 h) was less than 1 µM; in series [2], less than 1 µM. This molecule also showed a CC50 at 5 days in series [3] of 10 to 100 µM. On recombinant RSV complex, the IC50 is less than 1 µM.

In the case of `COc1cc(C(=O)NCC(O)(c2cc3c(c(-c4ccc(F)cc4)n2)OCC3(C)N)C(F)(F)F)cc2c1NC(=O)C2=O` (centres unmarked) [Compound 10], the half-maximal effective concentration (EC50) in series [1] (setting [4]) and in series [2] was 1 to 50 µM throughout. In series [3], this molecule gave a CC50 at 5 days of 10 to 100 µM. The 50% inhibitory concentration (IC50) on recombinant RSV complex is less than 50 µM.

`CC1(N)COc2c1cc(C(O)(CNC(=O)c1ccc(OC3CC3)c(OCCO)c1)C(F)(F)F)nc2-c1ccc(F)cc1` (centres unmarked) [Compound 12]: the concentration for a half-maximal effect (EC50) in series [1] (setting [4]) and in series [2] was less than 1 µM each time. Also, the IC50 at recombinant RSV complex is less than 1 µM.
